Test results: patent publication US20260053834A1, “COVALENT MODIFIERS OF AKT1 AND USES THEREOF” (Terremoto Biosciences, Inc., priority 2023, published 2026)

How the values were obtained:
[1] = tested on: LAPC4 prostate cancer cells, which express the AKT1 E17K allele; assay: Antiproliferative effects in LAPC4 cells (CellTiter Glo, 72 h); type: cell-based; conditions: Homo sapiens, LAPC4, 72 h, read-out: LAPC4 proliferation IC50: GeoMean IC50
Description: Antiproliferative effects in LAPC4 cells. LAPC4 prostate cancer cells (Klein, K. A. et al. Nat Med 1997, 3, 402-408), which express the AKT1 E17K allele, were grown in IMDM media (Hyclone) supplemented with 12% FBS+1% P/S. To assess compound effects on growth, 1,000 cells/well were seeded in 384 well assay plates, incubated with compound dilutions dissolved in DMSO. After 72 h, intracellular ATP content was assessed with CellTiter Glo reagent (Promega) according to the manufacturer's instructions. IC50 values were calculated by fitting luminescence values to a log(inhibitor) vs. response Hill equation.

AKT1 WT = target: T1, AKT1 WT (Homo sapiens, UniProt P31749); assay: Live cell target engagement by NanoBRET competitive probe displacement, AKT1 WT; type: binding; conditions: transfected HEK293 cells, 2 h at 37° C., read-out: AKT1 WT IC50: GeoMean IC50
T1 construct: expressed in transfected cells; host or cells: HEK293
T1 sequence (P31749 whole entry): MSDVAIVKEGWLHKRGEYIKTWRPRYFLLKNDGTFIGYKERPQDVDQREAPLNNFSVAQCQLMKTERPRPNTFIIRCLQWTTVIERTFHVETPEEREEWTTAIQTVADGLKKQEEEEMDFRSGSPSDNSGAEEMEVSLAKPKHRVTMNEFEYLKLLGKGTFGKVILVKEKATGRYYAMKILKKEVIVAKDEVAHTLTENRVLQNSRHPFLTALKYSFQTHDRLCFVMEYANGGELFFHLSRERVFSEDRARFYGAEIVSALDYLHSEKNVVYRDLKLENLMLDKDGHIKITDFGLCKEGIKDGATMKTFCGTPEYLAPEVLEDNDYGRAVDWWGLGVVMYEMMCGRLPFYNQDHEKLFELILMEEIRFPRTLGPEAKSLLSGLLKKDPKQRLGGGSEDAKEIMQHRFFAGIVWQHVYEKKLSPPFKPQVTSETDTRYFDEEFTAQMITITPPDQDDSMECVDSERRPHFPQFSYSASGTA
Description: (§1) Determining live cell AKT1 E17K, AKT1 WT, and AKT2 target engagement by NanoBRET competitive probe displacement. Live cell target engagement assays were performed as described (Vasta, J. D. et al. Cell Chem Biol 2018, 25(11), 206-214). Briefly, HEK293 cells were transfected with plasmids encoding kinase-NanoLuciferase fusion proteins overnight. Cells were then treated with serial dilutions of compound and an ˜EC50 concentration of fluorescently-tagged ATP-competitive tracer (Promega). After incubation for 2 h at 37° C., luciferase substrate and extracellular luciferase inhibitor were added to all wells, and luminescent intensity at 460 nm and 600 nm were measured on a multimode plate-reader. The ratio of E600/E460 was calculated to give the tracer engagement signal (BRET). IC50 values were calculated by fitting BRET values to a log(inhibitor) vs. response Hill equation.

AKT1 E17K = target: T2, AKT1 E17K (Homo sapiens, UniProt P31749, E17K); assay: Live cell target engagement by NanoBRET competitive probe displacement, AKT1 E17K; type: binding; conditions: transfected HEK293 cells, 2 h at 37° C., read-out: AKT1 E17K IC50: GeoMean IC50
T2 construct: expressed in transfected cells; host or cells: HEK293
T2 sequence (P31749 whole entry E17K): as the sequence (P31749 whole entry) above, with E17K counted along it
Description: as §1

AKT2 = target: T3, AKT2 (Homo sapiens, UniProt P31751); assay: Live cell target engagement by NanoBRET competitive probe displacement, AKT2; type: binding; conditions: transfected HEK293 cells, 2 h at 37° C., read-out: AKT2 IC50: GeoMean IC50
T3 construct: expressed in transfected cells; host or cells: HEK293
T3 sequence (P31751 whole entry): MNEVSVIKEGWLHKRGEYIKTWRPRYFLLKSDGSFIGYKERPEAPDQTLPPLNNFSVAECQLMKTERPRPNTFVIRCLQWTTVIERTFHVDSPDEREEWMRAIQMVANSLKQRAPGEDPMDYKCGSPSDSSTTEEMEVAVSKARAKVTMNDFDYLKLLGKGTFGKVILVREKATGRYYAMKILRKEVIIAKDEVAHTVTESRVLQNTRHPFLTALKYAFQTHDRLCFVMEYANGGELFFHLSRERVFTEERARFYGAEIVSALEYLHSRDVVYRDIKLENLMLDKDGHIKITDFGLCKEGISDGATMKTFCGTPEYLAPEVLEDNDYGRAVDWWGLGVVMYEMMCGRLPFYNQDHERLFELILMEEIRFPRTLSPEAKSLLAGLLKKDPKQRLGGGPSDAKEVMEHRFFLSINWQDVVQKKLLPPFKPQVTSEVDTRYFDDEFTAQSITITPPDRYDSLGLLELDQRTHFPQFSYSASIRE
Description: as §1

Compound	IC50 [1] [nM]	IC50 (AKT1 WT) [nM]	IC50 (AKT1 E17K) [nM]	IC50 (AKT2) [nM]
Cc1nc2cc(O)c(C=O)cc2c(=O)n1[C@H]1CCc2cc(-n3c(-c4cccnc4N)nc4ccc(-n5cccn5)nc43)ccc21 [Example 249, 3-[(1S)-5-[2-(2-aminopyridin-3-yl)-5-(pyrazol-1-yl)imidazo[4,5-b]pyridin-3-yl]-2,3-dihydro-1H-inden-1-yl]-7-hydroxy-2-methyl-4-oxoquinazoline-6-carbaldehyde]	≥ 2000			
Nc1ncccc1-c1nc2ccc(-n3cccn3)nc2n1-c1ccc2c(c1)CC[C@@H]2n1cnc2c(F)c(O)c(C=O)cc2c1=O [Example 243, 3-[(1S)-5-[2-(2-aminopyridin-3-yl)-5-(pyrazol-1-yl)imidazo[4,5-b]pyridin-3-yl]-2,3-dihydro-1H-inden-1-yl]-8-fluoro-7-hydroxy-4-oxoquinazoline-6-carbaldehyde]	100 to 2000			
CS(=O)(=O)Nc1cc2ncn([C@H]3CCc4cc(-n5c(-c6cccnc6N)nc6ccc(-n7cccn7)nc65)ccc43)c(=O)c2cc1C=O [Example 244, N-{3-[(1S)-5-[2-(2-aminopyridin-3-yl)-5-(pyrazol-1-yl)imidazo[4,5-b]pyridin-3-yl]-2,3-dihydro-1H-inden-1-yl]-6-formyl-4-oxoquinazolin-7-yl}methanesulfonamide]	100 to 2000			
Nc1ncccc1-c1nc2ccc(-c3ccccc3)nc2n1-c1ccc2c(c1)CC[C@H]2NC(=O)c1ccc(O)c(C=O)c1 [Example 7, N-[(1R)-5-[2-(2-aminopyridin-3-yl)-5-phenylimidazo[4,5-b]pyridin-3-yl]-2,3-dihydro-1H-inden-1-yl]-3-formyl-4-hydroxybenzamide]		≥ 2000	100 to 2000	≥ 2000
Nc1ncccc1-c1nc2ccc(-c3ccccc3)nc2n1-c1ccc2c(c1)CCC2NCCc1ccc(C=O)c(O)c1 (stereo not shown) [Example 1, 4-(2-((5-(2-(2-aminopyridin-3-yl)-5-phenyl-3H-imidazo[4,5-b]pyridin-3-yl)-2,3-dihydro-1H-inden-1-yl)amino)ethyl)-2-hydroxybenzaldehyde]		100 to 2000	10 to 100	100 to 2000
Nc1ncccc1-c1nc2ccc(-c3ccccc3)nc2n1-c1ccc2c(c1)CCC2NCCc1ccc(O)c(C=O)c1 (stereo not shown) [Example 2, 5-(2-((5-(2-(2-aminopyridin-3-yl)-5-phenyl-3H-imidazo[4,5-b]pyridin-3-yl)-2,3-dihydro-1H-inden-1-yl)amino)ethyl)-2-hydroxybenzaldehyde]		≥ 2000	100 to 2000	≥ 2000
Nc1ncccc1-c1nc2ccc(-n3cccn3)nc2n1-c1ccc2c(c1)CC(O)C2NC(=O)c1ccc(O)c(C=O)c1 (stereo not shown) [Example 251, N-(5-(2-(2-aminopyridin-3-yl)-5-(1H-pyrazol-1-yl)-3H-imidazo[4,5-b]pyridin-3-yl)-2-hydroxy-2,3-dihydro-1H-inden-1-yl)-3-formyl-4-hydroxybenzamide]		100 to 2000	10 to 100	100 to 2000

Other lines, results leading:

IC50 [1] [nM]	IC50 (AKT1 WT) [nM]	IC50 (AKT1 E17K) [nM]	IC50 (AKT2) [nM]	Compound
100 to 2000	100 to 2000	10 to 100	100 to 2000	C#Cc1cc(-n2cccn2)nc2c1nc(-c1cccnc1N)n2-c1ccc2c(c1)CC[C@@H]2NC(=O)c1ccc(O)c(C=O)c1 [Example 201, N-[(1S)-5-[2-(2-aminopyridin-3-yl)-7-ethynyl-5-(pyrazol-1-yl)imidazo[4,5-b]pyridin-3-yl]-2,3-dihydro-1H-inden-1-yl]-3-formyl-4-hydroxybenzamide]
≥ 2000	100 to 2000	100 to 2000	≥ 2000	Nc1ncccc1-c1nc2ccc(C(F)(F)F)nc2n1-c1ccc2c(c1)CC[C@@H]2NC(=O)c1ccc(O)c(C=O)c1 [Example 55, (S)—N-(5-(2-(2-aminopyridin-3-yl)-5-(trifluoromethyl)-3H-imidazo[4,5-b]pyridin-3-yl)-2,3-dihydro-1H-inden-1-yl)-3-formyl-4-hydroxybenzamide]
100 to 2000	100 to 2000	100 to 2000	100 to 2000	[N-]=[N+]=Nc1c(C(=O)N[C@H]2CCc3cc(-n4c(-c5cccnc5N)nc5ccc(-n6cccn6)nc54)ccc32)cc(C=O)c(O)c1F [Example 218, (S)—N-(5-(2-(2-aminopyridin-3-yl)-5-(1H-pyrazol-1-yl)-3H-imidazo[4,5-b]pyridin-3-yl)-2,3-dihydro-1H-inden-1-yl)-2-azido-3-fluoro-5-formyl-4-hydroxybenzamide]
100 to 2000	100 to 2000	10 to 100	100 to 2000	Cc1cc(O)c(C=O)cc1C(=O)N[C@H]1CCc2cc(-n3c(-c4cccnc4N)nc4ccc(-n5cccn5)nc43)ccc21 [Example 149, N-[(1S)-5-[2-(2-aminopyridin-3-yl)-5-(pyrazol-1-yl)imidazo[4,5-b]pyridin-3-yl]-2,3-dihydro-1H-inden-1-yl]-5-formyl-4-hydroxy-2-methylbenzamide]
	10 to 100	10 to 100	100 to 2000	Nc1ncccc1-c1nc2ccc(-n3cccn3)nc2n1-c1ccc2c(c1)CC[C@@H]2NC(=O)c1cc(C=O)c(F)cc1F [Example 188, (S)—N-(5-(2-(2-aminopyridin-3-yl)-5-(1H-pyrazol-1-yl)-3H-imidazo[4,5-b]pyridin-3-yl)-2,3-dihydro-1H-inden-1-yl)-2,4-difluoro-5-formylbenzamide]
	100 to 2000	10 to 100	≥ 2000	Nc1ncccc1-c1nc2ccc(-c3ccccc3)nc2n1-c1ccc2c(c1)CC[C@H]2NCCc1ccc(C=O)c(O)c1 [Example 3, 4-(2-{[(1R)-5-[2-(2-aminopyridin-3-yl)-5-phenylimidazo[4,5-b]pyridin-3-yl]-2,3-dihydro-1H-inden-1-yl]amino}ethyl)-2-hydroxybenzaldehyde]
	100 to 2000	10 to 100	100 to 2000	Nc1ncccc1-c1nc2ccc(-c3ccccc3)nc2n1-c1ccc2c(c1)CC[C@@H]2NCCc1ccc(C=O)c(O)c1 [Example 4, 4-(2-{[(1S)-5-[2-(2-aminopyridin-3-yl)-5-phenylimidazo[4,5-b]pyridin-3-yl]-2,3-dihydro-1H-inden-1-yl]amino}ethyl)-2-hydroxybenzaldehyde]
	10 to 100	10 to 100	100 to 2000	Nc1ncccc1-c1nc2ccc(-c3ccccc3)nc2n1-c1ccc2c(c1)CC[C@@H]2NC(=O)Cc1ccc(C=O)c(O)c1Cl [Example 9, N-[(1S)-5-[2-(2-aminopyridin-3-yl)-5-phenylimidazo[4,5-b]pyridin-3-yl]-2,3-dihydro-1H-inden-1-yl]-2-(2-chloro-4-formyl-3-hydroxyphenyl)acetamide]
	10 to 100	10 to 100	100 to 2000	Nc1ncccc1-c1nc2ccc(-c3ccccc3)nc2n1-c1ccc2c(c1)CCC2NC(=O)Cc1ccc(C=O)c(O)c1 (stereo not shown) [Example 6, N-(5-(2-(2-aminopyridin-3-yl)-5-phenyl-3H-imidazo[4,5-b]pyridin-3-yl)-2,3-dihydro-1H-inden-1-yl)-2-(4-formyl-3-hydroxyphenyl)acetamide]
	10 to 100	10 to 100	10 to 100	Nc1ncccc1-c1nc2ccc(-n3cccn3)nc2n1-c1ccc2c(c1)CC[C@@H]2NC(=O)c1ccc(F)c(C=O)c1 [Example 191, (S)—N-(5-(2-(2-aminopyridin-3-yl)-5-(1H-pyrazol-1-yl)-3H-imidazo[4,5-b]pyridin-3-yl)-2,3-dihydro-1H-inden-1-yl)-4-fluoro-3-formylbenzamide]
